Publication PMC8319603, “Developing C2-Aroyl Indoles as Novel Inhibitors of IDO1 and Understanding Their Mechanism of Inhibition via Mass Spectroscopy, QM/MM Calculations and Molecular Dynamics Simulation” (Frontiers in Chemistry, 2021)
Values joined by “and” are separate entries in the source; they are usually repeats but may differ in a detail not shown here. Equal values may be shown once.

What was measured:
[1] = target: T1, hIDO1 (ferric-IDO1 and deoxy ferrous-IDO1) (Homo sapiens, UniProt P14902); test: UV-Vis absorption study of ligand binding to IDO1 (Soret band); settings: ligand 25 µM, IDO1 1 µM, pH 6.5; 414 nm without ligand
T1 construct: purchased Biovision P1096
T1 sequence (P14902 whole entry): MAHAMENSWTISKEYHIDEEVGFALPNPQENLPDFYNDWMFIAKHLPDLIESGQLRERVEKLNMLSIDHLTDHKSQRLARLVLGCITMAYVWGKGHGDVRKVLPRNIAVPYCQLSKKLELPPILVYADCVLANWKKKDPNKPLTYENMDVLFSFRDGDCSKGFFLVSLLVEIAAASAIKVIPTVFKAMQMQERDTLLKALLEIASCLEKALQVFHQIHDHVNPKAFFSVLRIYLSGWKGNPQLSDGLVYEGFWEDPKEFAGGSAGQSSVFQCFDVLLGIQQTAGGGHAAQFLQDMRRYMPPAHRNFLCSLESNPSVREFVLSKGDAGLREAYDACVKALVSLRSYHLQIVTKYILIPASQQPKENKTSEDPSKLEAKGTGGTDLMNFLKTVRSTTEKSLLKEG
Method: All the measurements of binding of compound and enzyme were recorded at room temperature using an Agilent Cary 8454 UV-Vis diode array spectrophotometer with 1 cm light path. The experiments were performed in 50 mM potassium phosphate buffer pH- 6.5 with IDO1 protein concentration of 1 µM and compound concentration of 25 µM was incubate for 3 h at 37°C. The deoxy-form of protein was prepared by pre-purged with nitrogen gas and adding […] (∼5 fold excess) in protein with potassium phosphate system.

[2] = Plasma protein binding in rat plasma (rapid equilibrium dialysis); format: in vitro ADME; settings: for Rat plasma protein binding %Ge bound / Rat plasma protein binding %Ge free: 10 μM; for fraction unbound at 10 μM: pH 7.4
Source text: For the DMPK studies of the compound 8a-d we used rat as well as human plasmas. Rat plasma was purchased from Hylasco Biotechnology Pvt. Ltd.™ Hyderabad, India. We have not performed any in vivo experiments for this manuscript neither for animals nor for humans. […] Also please note the blood plasma was obtained from the blood of Dr Srinivas R Maddi, who donated it and is the co-author of this article. The DMPK studies were supplemented by kinetic solubility, Log p and Log D determinations, PAMPA permeability, Metabolic and Plasma stability in rat and human, and finally the plasma folding in rat and human. A thorough discussion of each step is mentioned in the supplementary information. […]
Plasma protein binding in rat and human plasma: To evaluate the ability of compound to bind the plasma proteins, the most common approach of plasma protein binding using rapid equilibrium dialysis device ( RED inserts) used. Compounds were tested at a final concentration of 10 μM in mouse, rat and human plasma. An aliquot of 500 μL plasma containing compound 3k was added in first half (plasma side) of the well of RED device. An aliquot of 300 μL of 100 mM sodium phosphate buffer pH 7.4 was added in the second half (buffer side) of the Insert. The plate containing plasma and […]

[3] = Metabolic stability in human liver microsomes; format: in vitro ADME
Method: Metabolic stability in mouse, rat and human liver microsomes: Metabolic stability was defined as the percentage of parent compound lost over time in the presence of a metabolically active test system.
The incubation mixtures consisted of liver microsomes 1.0 mg microsomal protein /mL , compound 1 uM or positive control verapamil, 1 uM . The reactions were initiated by adding 1 mM NADPH.
Reactions without NADPH at 0 and 60 min were also incubated to rule out non-NADPH metabolism or chemical instability in the incubation buffer. All reactions were terminated using 200 uL of ice-cold acetonitrile containing internal standard 200 ng/mL of telmisartan at 0, 5, 15, 30 and 60 min. The vials were centrifuged at 4000 rpm for 20 min. The supernatants thus obtained were analyzed on LC-MS/MS to monitor the disappearance of compound. […]

[4] = target: T2, recombinant protein of human TDO2 enzyme (Homo sapiens, UniProt P48775); test: TDO2 enzymatic assay in vitro (kynurenine formation, absorbance 492 nm); format: biochemical; settings: read-out: IC50 against TDO2
T2 construct: purchased Biovision CSB-YP023351HU
T2 sequence (P48775 whole entry): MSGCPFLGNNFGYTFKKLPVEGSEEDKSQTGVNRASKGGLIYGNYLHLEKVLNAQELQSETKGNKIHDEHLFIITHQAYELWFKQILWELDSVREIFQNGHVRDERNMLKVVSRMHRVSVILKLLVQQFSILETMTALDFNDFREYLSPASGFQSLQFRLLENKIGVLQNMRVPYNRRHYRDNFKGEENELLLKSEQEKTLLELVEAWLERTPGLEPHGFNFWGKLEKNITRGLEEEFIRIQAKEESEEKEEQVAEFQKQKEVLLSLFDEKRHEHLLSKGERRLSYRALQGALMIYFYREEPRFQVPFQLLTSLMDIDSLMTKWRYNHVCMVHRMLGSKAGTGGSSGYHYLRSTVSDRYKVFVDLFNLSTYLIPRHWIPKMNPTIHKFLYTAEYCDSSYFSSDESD
Method: The recombinant human IDO/TDO protein were purchased from Biovision (Catalog no.: P1096 human recombinant IDO1 and CSB-YP023351HU human recombinant TDO2). All the other HPLC grade solvent were purchased from Merck Pvt. Ltd. The IDO/TDO assays were performed according to the reported procedures.1 and 2, the details of which is mentioned in the SI.
20 µL of IDO1/TDO2 protein (1µg/ml concentration) was added and incubates for 10 min. After that 20 µL of 2 mM L-tryptophan was added and then treated with different test compounds concentration […]
The plate was then sealed well for 2hr incubation process at 37°C. After incubation, 40 µL of 30% TCA solution was added and again incubated for 15 min at 60 °C, the samples were centrifuged for 15 min at 13000 rpm at 4 °C. The 100 µL of supernatant was transferred in fresh 96 well plate and treated with 100 µL of freshly prepared 2% Ehlrich reagent which was then analyzed by absorbance plate reader at 492 nm to measure the extent of kynurenine formation. The DMSO content in the sample was 0.005 %. The final concentration of the compound in deep well plate was 5 µM. The IC50 values were calculated in triplicate by using GraphPadPrism […]
1. Water was substituted with L-tryphtophan
2. Water was substituted with L-tryhtophan and rhIDO/ rhTDO protein.
A = IDO activity in presence of inhibitor

[5] = target: T3, indolamine-2, 3-dioxygenase one (IDO1) (Homo sapiens, UniProt P14902); test: Inhibition kinetics (Lineweaver-Burk plots); format: biochemical; settings: L-tryptophan 1–4 mM, inhibitor 0–1.5 µM; with respect to L-tryptophan
T3 construct: purchased Biovision P1096
T3 sequence (P14902 whole entry): as the sequence (P14902 whole entry) above
Method: The IDO1 activity assay was performed to measure the formation of […] by absorbance plate reader at 492 nm. The mode of inhibition of the screened compounds was determined from the Lineweaver-Burk plots, which are the double reciprocal plots of enzyme reaction velocities (1/V) vs. substrate concentrations (1/[S]), where V and [S] represent the initial rate of enzymatic reaction and L-tryptophan concentration respectively.

SMILES | Soret band of deoxy ferrous-IDO1 in presence of ligand [1] | Rat plasma protein binding %Ge bound [2] [%] | Rat plasma protein binding %Ge free [2] [%] | fraction unbound at 10 μM [2] | Human liver microsomal % QH (hepatic extraction ratio) [3] | Metabolic stability in liver microsomes [3] | IC50 [4] [µM] | Mode of inhibition of IDO1 [5]
COC(=O)NCCc1c(C(=O)c2ccccc2)[nH]c2ccccc12 [8e] | 407 nm | 95.9 | 4.1 | 0.041 | 58% | moderately stable | 16.8 | –
CC(=O)NCCc1c(C(=O)c2ccc([N+](=O)[O-])cc2)[nH]c2ccccc12 [8d] | 407 nm | 82.1 | 17.9 | 0.179 | 33% and 32.6% | moderately stable | 9.16 | competitive
CC(=O)NCCc1c(C(=O)c2cc(C(F)(F)F)cc(C(F)(F)F)c2)[nH]c2ccccc12 [8a] | 407 nm and 430 nm | 97.3 | 2.7 | 0.027 | 73.9% | unstable | 6.95 | –
